Where only a bound is given, the exact number is not on record here.

This assay deals with Adenosine receptor A2a (Homo sapiens, UniProt P29274). Briefly: Displacement of [3H]ZM241385 from human adenosine A2A receptor expressed in HEK293 cell membrane incubated for 1 hr by microplate beta scintillation counting based radioligand inhibition assay. The class given is cell membranes. In general terms: Loss of bound radioactivity is the signal in a displacement assay; it reports binding, not function.
Adenosine receptor A2a, sequence (P29274 whole entry): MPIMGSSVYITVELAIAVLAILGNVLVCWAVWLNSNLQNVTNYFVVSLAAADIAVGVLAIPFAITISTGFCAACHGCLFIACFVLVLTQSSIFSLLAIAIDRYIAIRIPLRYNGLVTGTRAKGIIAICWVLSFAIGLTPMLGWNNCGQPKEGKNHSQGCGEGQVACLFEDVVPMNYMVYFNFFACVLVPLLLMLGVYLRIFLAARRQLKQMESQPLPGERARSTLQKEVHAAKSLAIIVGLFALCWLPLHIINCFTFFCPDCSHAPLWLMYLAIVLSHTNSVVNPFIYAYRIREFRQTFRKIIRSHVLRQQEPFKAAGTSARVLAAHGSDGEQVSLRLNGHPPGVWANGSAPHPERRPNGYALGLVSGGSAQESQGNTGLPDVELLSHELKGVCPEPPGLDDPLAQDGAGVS
What is called Ki is a dissociation constant, usually derived from enzyme kinetics or from competition with a known ligand. High values mean a looser hold on the target, low ones a stronger hold on the target. Compound `Nc1nc(-c2ccoc2)c2ccccc2n1` registered a Ki of 0.696 µM.

`Nc1nc(-c2ccccc2F)c2ccccc2n1` gave a Ki of 0.456 µM.

Consider `Nc1nc(-c2ccccc2)c2ccccc2n1`, for which the Ki was 0.198 µM.

In turn, `Nc1nc(NCCc2ccccc2)c2ccccc2n1` yielded a Ki above 10 µM.

Compound `Cc1ccccc1-c1nc(N)nc2ccccc12` returned a Ki of 3.3 µM.

`CC(C)(C)c1ccc(-c2nc(N)nc3ccccc23)cc1` yielded a Ki above 10 µM.

In the case of `Nc1nc(NCc2ccccc2)c2ccccc2n1`, the Ki is above 10 µM.

For `Cc1cccc(C)c1-c1nc(N)nc2ccccc12`, the Ki is above 10 µM.

The compound `c1ccc(CCNc2ncnc3ccccc23)cc1` returned a Ki above 10 µM.

For the compound `Clc1nc(-c2ccccc2)c2ccccc2n1`, the Ki was above 10 µM.

In the case of `NCc1nc(NCCc2ccccc2)c2ccccc2n1`, the Ki was above 10 µM.

On to `N#Cc1cccc(-c2nc(N)nc3ccccc23)c1`, for which the affinity, expressed as Ki, was 0.586 µM.

Compound `Nc1nc(-c2ccccc2)nc2ccccc12` showed an inhibition constant Ki above 10 µM.

As for `Nc1nc(-c2ccco2)c2ccccc2n1`, the affinity, expressed as Ki, was 0.089 µM.

In the case of `Oc1nc(-c2ccccc2)c2ccccc2n1`, the Ki was above 10 µM.

For `C(#Cc1ncnc2ccccc12)c1ccccc1`, the Ki came out at 4 µM.

In the case of `Nc1nc(-c2ccccc2[N+](=O)[O-])c2ccccc2n1`, the Ki is above 10 µM.

Turning to `c1ccc(-c2ncnc3ccccc23)cc1`, the Ki amounted to 2.3 µM.

In the case of `COc1ccccc1-c1nc(N)nc2ccccc12`, affinity was put at a Ki of 0.651 µM.

For the compound `Nc1nc(CCc2ccccc2)c2ccccc2n1`, the Ki was above 10 µM.

With `Nc1nc(Nc2ccccc2)c2ccccc2n1`, the inhibitory constant (Ki) is above 10 µM.

On to `COc1ccc(-c2nc(N)nc3ccccc23)cc1`, for which the Ki was 0.736 µM.

With `NCc1nc(-c2ccccc2)c2ccccc2n1`, the Ki was above 10 µM.

`Nc1nc(-c2ccccc2N)c2ccccc2n1` registered a Ki of 2 µM.

`Cc1ccc(-c2nc(N)nc3ccccc23)cc1` gave a Ki of 1.5 µM.

Consider `NCc1nc(-c2ccco2)c2ccccc2n1`, for which the Ki was above 10 µM.

Turning to `Nc1nc(-c2ccc(F)cc2)c2ccccc2n1`, affinity was put at a Ki of 0.08 µM.

`COc1cccc(-c2nc(N)nc3ccccc23)c1` showed a Ki of 0.708 µM.

`Nc1nc(-c2cccc(F)c2)c2ccccc2n1` came in with a Ki of 0.174 µM.

Consider `Nc1nc(-c2cccs2)c2ccccc2n1`, for which the Ki came out at 0.171 µM.

These data come from ChEMBL document CHEMBL5108007, “High ligand efficiency quinazoline compounds as novel A2A adenosine receptor antagonists” (Eur J Med Chem, 2022).
